Laboratory results published in publication PMC8290497, “Taxifolin, an Inhibitor of Sortase A, Interferes With the Adhesion of Methicillin-Resistant Staphylococcal aureus” (Frontiers in Microbiology, 2021).
In brackets after ≈: the same amount, converted by molar mass.

Experiments:
S. aureus SrtA = molecular target: T1, S. aureus SrtA (Staphylococcus aureus, UniProt Q2FV99); test: FRET assay of SrtA transpeptidation (cleavage of Abz-LPATG-Dap(Dnp)-NH2); format: biochemical
T1 construct: 6xHis; made in house; host or cells: E. coli BL21 (DE3), plasmid pET28a-SrtA
Description: Fluorescence resonant energy transfer (FRET) was used to determine the effect of Tax on SrtA, as described previously ([Kruger et al., 2002]). Briefly, 4 μM purified recombinant SrtA was combined with various concentrations of Tax then added to assay buffer consisting of 50 mM Tris-HCl, 5 mM CaCl2, 150 mM NaCl, at pH 7.5, to a final volume of 200 μL. Following incubation of the mixture at 37°C for 1 h, substrate peptide was added to a final concentration of 10 μM and incubated for an additional 30 min. Fluorescence intensity was measured at excitation and emission wavelengths of 309 and 420 nm, respectively.
(§1) To identify novel inhibitors of SrtA, an in-house library containing 420 natural compounds was screened, using a FRET assay. […] To further clarify the interacting way of SrtA and Tax, recombinant SrtA was reacted with Tax at a concentration of 10-fold IC50. A total of 85.80 ± 0.67% of SrtA activity was subsequently recovered, compared with the control group (DMSO) (Figure 1C).
FIGURE 1 Inhibition of SrtA transpeptidation. (A) Chemical structure of Tax. […] Each reaction condition was assayed in triplicate from which the IC50 was determined. (C) Recombinant SrtA was treated with 10 × IC50 of Tax and then diluted, after which transpeptidation activity was measured using a FRET assay. […]

SrtA [1] = molecular target: T2, SrtA (Staphylococcus aureus, UniProt Q2FV99); test: Reversibility of SrtA inhibition (10 × IC50, dilution, FRET assay); format: biochemical; settings: SrtA treated with 10-fold IC50 of Tax then diluted; compared with control group (DMSO)
T2 construct: 6xHis; made in house; host or cells: E. coli BL21 (DE3), plasmid pET28a-SrtA
Text: as §1
FIGURE 1 Inhibition of SrtA transpeptidation. (A) Chemical structure of Tax. (B) Tax inhibits SrtA cleavage of a fluorogenic peptide substrate (Abz-LPATG-Dnp-NH2) in a dose-dependent manner in vitro. Each reaction condition was assayed in triplicate from which the IC50 was determined. (C) Recombinant SrtA was treated with 10 × IC50 of Tax and then diluted, after which transpeptidation activity was measured using a FRET assay. Untreated SrtA (Control) represented 100% activity.

S. aureus USA300 = test: Broth microdilution susceptibility assay (MIC); format: cell-based; settings: Staphylococcus aureus, S. aureus USA 300
Description: A broth microdilution assay was performed to determine the minimum inhibitory concentration (MIC) of Tax for S. aureus USA300, as described elsewhere ([Sader et al., 2013]; [Delgado-Valverde et al., 2017]). A growth curve was further evaluated by adding various concentrations of Tax (0–200 μM) to a bacterial culture, then incubating until an OD600 of 0.3 had been reached. S. aureus USA300 and ΔsrtA were used as controls. The OD600 value was recorded for each sample at 1 h intervals for a total of 24 h. The growth rate between S. aureus treated with Tax and S. aureus USA300 was also calculated at each time point.

HepG2 cells = test: CCK-8 cytotoxicity assay, HepG2; format: cell-based
Description: Cytotoxicity was determined using a cell counting kit-8 assay (CCK-8, US EVERBRIGHT, Suzhou, China), as described previously ([Xiao et al., 2018]). HEK293 or HepG2 cells were seeded in 96-well plates (Corning, United States) at a density of 5 × 10^4 cells/well, then incubated at 37°C in an atmosphere containing 5% CO2 for 24 h. The culture medium was then exchanged with fresh medium containing different concentrations of Tax (0–200 μM) or vehicle and incubated for an additional 24 h. CCK-8 solution (10 μL) was carefully added then incubated for 4 h in an incubator at 37°C. The OD value at 450 nm was measured to calculate cell viability.
FIGURE 2 Growth curve and cytotoxicity. (A) Growth curves of S. aureus USA300 and the ΔsrtA group with different concentrations of Tax. (B) Growth rate of S. aureus USA300 and S. aureus treated with Tax (25 μM). (C) Percent cell viability of HEK293 (purple) and HepG2 (blue) cells were measured using a CCK-8 assay after incubation with Tax for 24 h.

SrtA [2] = molecular target: T2, SrtA; test: Localized surface plasmon resonance (LSPR); format: binding
Description: The interaction between Tax and SrtA was determined using an OpenSPR localized surface plasmon resonance (LSPR) instrument (Nicoya, Canada) at 25°C, as described previously ([Panneer Selvam et al., 2018]; [Song et al., 2019]). Briefly, SrtA proteins were captured on a COOH chip using a standard amine coupling system. A 200 μL aliquot of blocking buffer was added to rinse the sample ring and to remove any air. After a stable baseline had been achieved, the affinity between Tax and SrtA was measured by injecting 20, 40, 80, 160, or 320 μM Tax. The kinetic parameters of the binding reaction were calculated and visualized using TraceDrawer software ([Yang et al., 2011]).
FIGURE 4 Expression of SrtA in the presence of Tax and the interaction of different concentrations of Tax with SrtA. (A) Western blot analysis of SrtA protein from S. aureus treated with various concentrations of Tax and grayscale analysis of SrtA protein bands. (B) LSPR analysis verified the binding affinity of Tax with SrtA. Error bars represent means ± SD of three replicates. ***P < 0.001 calculated with a two-tailed Student’s t-test.

D170A-SrtA mutant = molecular target: T3, D170A-SrtA mutant (Staphylococcus aureus, UniProt Q2FV99, D170A); test: Fluorescence quenching assay, D170A-SrtA; format: binding
T3 construct: 6xHis; made in house; host or cells: E. coli BL21 (DE3), mutated pET28a-SrtA
Description: (§2) Site-directed mutagenesis for D170A-SrtA and Q172A-SrtA was performed based on plasmid pET28a-SrtA using a multi-site mutagenesis kit (Transgen, Beijing, China) and the desired mutation was verified via DNA sequencing by Sangon Biotech (Shanghai, China). Subsequently, recombinant SrtA and the SrtA mutant proteins (D170A and Q172A) were expressed and purified in accordance with a previously published procedure ([Zhulenkovs et al., 2014]). Briefly, bacteria were cultured until an OD600 value of 0.8 was achieved, after which 0.5 mM isopropyl-β-D-thiogalactopyranoside (IPTG) was added to induce recombination of SrtA at 16°C overnight. Because the recombinant protein had 6 × His tags, it was purified using a nickel-nitrilotriacetic acid (Ni-NTA) purification system. Imidazole (10 mM) was used to wash away excess protein, while 400 mM imidazole was employed to elute the target protein.
(§3) Molecular modeling studies highlight the benefits of performing site-directed mutagenesis studies. Therefore, fluorescence quenching experiments were utilized to determine the binding affinity of Tax with SrtA and SrtA mutants (D170A, Q172A).

Q172A-SrtA mutant = molecular target: T4, Q172A-SrtA mutant (Staphylococcus aureus, UniProt Q2FV99, Q172A); test: Fluorescence quenching assay, Q172A-SrtA; format: binding
T4 construct: 6xHis; made in house; host or cells: E. coli BL21 (DE3), mutated pET28a-SrtA
Description: as §2, §3

O=C1c2c(O)cc(O)cc2OC(c2ccc(O)c(O)c2)C1O (stereo not drawn) [Tax, taxifolin]
IC50 (S. aureus SrtA): 24.5 ± 0.42 µM | SrtA activity recovered (SrtA [1]): 85.80 ± 0.67% | MIC (S. aureus USA300): 512 mg/L (≈ 1680 µM) | toxicity toward mammalian cells (HepG2) (HepG2 cells; 200 μM): did not display toxicity | cytotoxicity toward HepG2 cells (HepG2 cells; at 24.53 ± 0.42 μM, 24 h): no significant cytotoxicity | Kd (SrtA [2]): 165 µM | kon (SrtA [2]; read-out: Ka): 22.3 M⁻¹ s⁻¹ | Kd (D170A-SrtA mutant): 37.2 µM | Kd (Q172A-SrtA mutant): 26 µM
